According to ChEMBL document CHEMBL1862790, “Optimisation of fenarimol series for the treatment of Chagas disease”:

Legend:
Trypanosoma cruzi [1] = experiment: microbe, parasite or virus in culture; type: functional, Tulahuen LacZ, Clone C4; settings: Trypanosoma cruzi, Tulahuen LacZ, Clone C4
[2] = DNDI: Cytotoxicity against L-6 rat myoblasts from skeletal muscle cells; settings: L6 rat skeletal muscle myoblast cells
Trypanosoma cruzi [3] = experiment: microbe, parasite or virus in culture; type: functional, organism-based, Tulahuen LacZ, Clone C4; settings: Trypanosoma cruzi, Tulahuen LacZ, Clone C4

SMILES	IC90 (Trypanosoma cruzi [1]) [nM]	IC50 ([2]; IC50) [nM]	IC50 (Trypanosoma cruzi [3]) [nM]	IC50 [2] [nM]
OC(c1ccc(Cl)cc1)(c1cncnc1)c1cccc(F)c1 (stereo not given)	1900	> 100000	840	–
O=C(Cc1ccccc1)N1CCN(C(c2ccc(Cl)cc2)c2cncnc2)CC1 (stereo not given)	850	–	500	69500
CC(C)Oc1ccc(C(O)(c2ccc(Cl)cc2)c2cncnc2)cn1 (stereo not given)	100	85900	40	–
O=C(C1CC1)N1CCN(C(c2ccc(C(F)(F)F)cc2)c2cncnc2)CC1 (stereo not given)	652	> 100000	332	–
O=S(=O)(c1ccc(C(F)(F)F)cc1)N1CCN(C(c2ccc(Cl)cc2)c2cccnc2)CC1 (stereo not given)	180	51400	55	–
Cn1ccnc1C(=O)N1CCC(NC(c2ccc(C(F)(F)F)cc2)c2cccnc2)CC1 (stereo not given)	208	> 100000	81.5	–
Fc1cc(Cl)ccc1C(NC1CCN(c2ccccc2F)CC1)c1cccnc1 (stereo not given)	10	53200	4.5	–
O=C(c1ccccc1)N1CCC(NC(c2ccc(C(F)(F)F)cc2)c2cncs2)CC1 (stereo not given)	106	76100	33	–
CC(C)CC(O)(c1ccc(Cl)cc1)c1cncnc1 (stereo not given)	10000	> 100000	1150	–
O=C(NC(c1ccc(C(F)(F)F)cc1)c1cnccn1)c1ccccc1 (stereo not given)	> 1000	> 100000	> 1000	–
O=C(NC1CCN(C(c2ccc(Cl)cc2)c2cncnc2)CC1)c1ccccc1 (stereo not given)	790	90800	75	–
O=C(C1CCCCC1)N1CCN(C(c2ccc(Cl)cc2)c2cncnc2)CC1 (stereo not given)	920	> 100000	320	–
Clc1ccc(C(NCCN2CCOCC2)(c2cccnc2)c2ccccc2Cl)cc1 (stereo not given)	6230	56500	654	–
OC(c1ccc(Cl)cc1)(c1cccnc1)c1c(F)cccc1F (stereo not given)	182	–	80	> 100000
Cc1nc(C(=O)NC2CCN(C(c3ccc(C#N)cc3)c3cccnc3)CC2)cs1 (stereo not given)	156	> 100000	65	–
Cc1ncsc1C(=O)N1CCN(C(c2cccnc2)c2ccc(Cl)cc2F)CC1 (stereo not given)	244	92700	36	–
O=C(c1ccccc1)N1CCN(C(c2cncnc2)c2ccc(Cl)cc2F)CC1 (stereo not given)	580	> 100000	220	–
FC(F)(F)c1ccc(N2CCC(NC(c3cccnc3)c3cnn(Cc4ccccc4)c3)CC2)cc1 (stereo not given)	11	51600	6	–
O=C(NC1CCN(C(c2cnccn2)c2ccc(F)cc2F)CC1)c1ccccc1 (stereo not given)	930	> 100000	550	–
FC(F)(F)c1ccc(N(CC2CCN(c3ccc(Cl)cc3)CC2)c2cccnc2)cc1	41	76300	19	–
CON=C(C)c1cccnc1	> 10000	–	> 10000	> 100000
O=C(c1ccccc1)N1CCC(NC(c2cnccn2)c2ccc(F)cc2F)CC1 (stereo not given)	> 1000	> 100000	680	–
Fc1cc(Cl)ccc1C(NC1CCN(Cc2ccc(Cl)cc2Cl)CC1)c1cccnc1 (stereo not given)	92	43000	39	–
O=C(NC1CCN(C(c2cncnc2)c2ccc(Cl)cc2F)CC1)c1ccccc1 (stereo not given)	110	82400	22	–
CC(C)Oc1ccc(C(c2cccnc2)N2CCC(NS(C)(=O)=O)CC2)cc1 (stereo not given)	320	> 100000	110	–
CS(=O)(=O)N1CCC(NC(c2cccnc2)c2ccc(Cl)cc2F)CC1 (stereo not given)	540	> 100000	134	–
O=C(c1ccccc1)N1CCC(NC(c2ccc(C(F)(F)F)cc2)c2cnccn2)CC1 (stereo not given)	910	> 100000	320	–
Cc1noc(N2CCN(C(c3cncnc3)c3ccc(C(F)(F)F)cc3F)CC2)n1 (stereo not given)	282	> 100000	126	–

SMILES	IC90 (Trypanosoma cruzi [1]) [nM]	IC50 ([2]; IC50) [nM]	IC50 (Trypanosoma cruzi [3]) [nM]	IC50 [2] [nM]
O=S(=O)(Cc1ccccc1)NC(c1ccc(C(F)(F)F)cc1)c1cnccn1 (stereo not given)	> 1000	> 100000	> 1000	–
CCOC(=O)N1CCN(C(c2ccc(Cl)cc2)c2cncnc2)CC1 (stereo not given)	360	> 100000	190	–
O=C1NCCN1C1CCN(C(c2ccc(Cl)cc2)c2cccnc2)CC1 (stereo not given)	173	67800	40	–
CC(=O)C(C)N1CCC(NC(c2ccc(Cl)cc2)c2cccnc2)CC1 (stereo not given)	76	87700	42.3	–
Clc1ccc(C(c2cccnc2)N2CCCCC2)cc1 (stereo not given)	450	> 100000	180	–
CON=C(Cc1ccc(Cl)cc1Cl)c1cccnc1	4870	91300	2140	–
Cc1ccsc1C(O)(c1ccc(Cl)cc1)c1ccc(Cl)cc1	> 10000	58800	> 10000	–
CCOC(=O)N1CCC(NC(c2ccc(Cl)cc2)c2cccnc2)CC1 (stereo not given)	190	> 100000	70	–
Fc1cc(Cl)ccc1C(NC1CCN(c2nccc(C(F)(F)F)n2)CC1)c1cccnc1 (stereo not given)	63	55400	22.5	–
CCS(=O)(=O)NC(c1ccc(C(F)(F)F)cc1)c1cnccn1 (stereo not given)	> 1000	> 100000	> 1000	–
Cc1cc(C(=O)NC2CCN(C(c3ccc(C#N)cc3)c3cccnc3)CC2)nn1C (stereo not given)	962	> 100000	260	–
O=C(N1CCN(C(c2cccnc2)c2ccc(Cl)cc2F)CC1)C(F)(F)F (stereo not given)	830	> 100000	320	–
N#Cc1ccc(C(c2cccnc2)N(C(=O)C2CC2)C2CCN(C(=O)C3CC3)CC2)cc1 (stereo not given)	> 10000	> 100000	> 10000	–
FC(F)(F)c1ccc(C(NC2CCN(c3cncs3)CC2)c2cccnc2)cc1 (stereo not given)	118	59900	25	–
O=C(NC1CCN(C(c2ccc(Cl)cc2)c2cncnc2)CC1)C1CC1 (stereo not given)	> 1000	> 100000	480	–
OC(c1ccc(Cl)cc1)(c1cccnc1)c1cncnc1 (stereo not given)	59000	> 100000	1530	–
N#Cc1ccccc1N1CCC(NC(c2cccnc2)c2ccc(Cl)cc2F)CC1 (stereo not given)	24.9	39900	7.48	–
O=C(c1cccc(C(O)(c2ccc(Cl)cc2)c2cccnc2)c1)N1CCOCC1 (stereo not given)	120	> 100000	34	–
CS(=O)(=O)NC1CCN(C(c2ccc(C(F)(F)F)cc2)c2cccnc2)CC1 (stereo not given)	150	> 100000	50	–
O=C(NC1CC1)c1cccc(C(O)(c2ccc(Cl)cc2)c2cccnc2)c1 (stereo not given)	330	72300	180	–
CC(C)C(=O)NC(c1ccc(C(F)(F)F)cc1)c1cnccn1 (stereo not given)	> 10000	> 100000	> 10000	–
CC(C)n1cc(C(NC2CCN(c3ccc(C(F)(F)F)cc3)CC2)c2cccnc2)cn1 (stereo not given)	81	77000	29	–
N#Cc1ccc(C(NC2CCN(C(=O)c3ccccc3)CC2)c2cccnc2)cc1 (stereo not given)	948	> 100000	433	–
Cc1cnc(N2CCC(NC(c3ccc(C(F)(F)F)cc3)c3cccnc3)CC2)s1 (stereo not given)	101	59900	29	–
O=S(=O)(C1CCCCC1)N1CCN(C(c2ccc(Cl)cc2)c2cncnc2)CC1 (stereo not given)	850	56300	65	–
N#Cc1ccnc(N2CCC(NC(c3ccc(C(F)(F)F)cc3)c3cccnc3)CC2)n1 (stereo not given)	120	49700	31	–
OC(c1ccc(Cl)cc1)(c1cncnc1)c1cscn1 (stereo not given)	650	> 100000	251	–
